From the supplement of paper PMC11451515

Assays:
Conditions in all cases: 48 h
[1] = system: P12-Ichikawa; assay: cell viability relative to DMSO control; higher = less cytotoxic
Summary of the method: (§1)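 In 1536-well plates, 5 μl of leukemia cells were seeded per well: 500 cells/well for NOMO1 or SEM and 1000 cells/well for P12-Ichikawa. Each line had first been adapted for at least four passages in each medium. Library compounds in DMSO were pin-dosed at 11 threefold concentrations between 47 μM and 0.79 nM, and CellTiter-Glo One luminescence was read after 48 h at 37°C. Viability is a per-plate percentage relative to DMSO wells, with cell-free wells as background.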

[2] = system: NOMO1; assay: as above
Summary of the method: as §1

[3] = system: SEM cells; assay: as above
Summary of the method: as §1

[4] = system: P12-Ichikawa; assay: AUC of viability dose-response curve (% viability x log10 dose units); higher = less sensitive
Summary of the method: (§2)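 Library compounds in DMSO were applied for 48 h at 37°C at 11 threefold doses (47 μM to 0.79 nM) to medium-adapted leukemia cells in 1536-well plates holding 500 or 1000 cells/well. Luminescence from CellTiter-Glo One was normalised plate by plate against DMSO and cell-free wells. Area under the curve came from trapezoidal integration of a log-logistic fit, after scaling curves that rose above full viability and discarding those that failed quality control. The fit had four parameters and used log10 doses.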

[5] = system: NOMO1; assay: as above
Summary of the method: as §2

[6] = system: SEM cells; assay: as above
Summary of the method: as §2

Cc1cccc(/C=N/Nc2cc(N3CCOCC3)nc(OCCc3ccccn3)n2)c1
cell viability [%]
Conditions	[1]	[2]	[3]
HPLM + 10% dialyzed FBS, 0.000781 µM	95.8	101	99.3
HPLM + 10% dialyzed FBS, 0.00234 µM	102	106	93.8
HPLM + 10% dialyzed FBS, 0.00702 µM	92	111	102
HPLM + 10% dialyzed FBS, 0.0211 µM	104	107	100
HPLM + 10% dialyzed FBS, 0.0632 µM	103	90.2	111
HPLM + 10% dialyzed FBS, 0.19 µM	96.7	97.9	87
HPLM + 10% dialyzed FBS, 0.569 µM	89.5	94.5	104
HPLM + 10% dialyzed FBS, 1.71 µM	79	77.5	72.8
HPLM + 10% dialyzed FBS, 5.12 µM	67.6	41.5	82.7
HPLM + 10% dialyzed FBS, 15.4 µM	42	34.4	52.9
HPLM + 10% dialyzed FBS, 46.1 µM	28.4	24.3	31.8
RPMI 5 mM glucose + 10% FBS, 0.000781 µM	92	98.8	97.8
RPMI 5 mM glucose + 10% FBS, 0.00234 µM	97.5	107	98.9
RPMI 5 mM glucose + 10% FBS, 0.00702 µM	92.7	97.9	106
RPMI 5 mM glucose + 10% FBS, 0.0211 µM	99	99.5	109
RPMI 5 mM glucose + 10% FBS, 0.0632 µM	100	87.6	105
RPMI 5 mM glucose + 10% FBS, 0.19 µM	96.8	97	96.1
RPMI 5 mM glucose + 10% FBS, 0.569 µM	79.5	77.2	95.4
RPMI 5 mM glucose + 10% FBS, 1.71 µM	64.3	68.2	85.9
RPMI 5 mM glucose + 10% FBS, 5.12 µM	53.2	19.3	66.9
RPMI 5 mM glucose + 10% FBS, 15.4 µM	45	22.6	34.9
RPMI 5 mM glucose + 10% FBS, 46.1 µM	26.4	21.4	13.4
RPMI 5 mM glucose + 10% dialyzed FBS, 0.000781 µM	90	99.8	104
RPMI 5 mM glucose + 10% dialyzed FBS, 0.00234 µM	89.4	93	100
RPMI 5 mM glucose + 10% dialyzed FBS, 0.00702 µM	88.5	90.9	101
RPMI 5 mM glucose + 10% dialyzed FBS, 0.0211 µM	89.5	98.6	96.8
RPMI 5 mM glucose + 10% dialyzed FBS, 0.0632 µM	89.8	95.4	90.3
RPMI 5 mM glucose + 10% dialyzed FBS, 0.19 µM	80.6	85.8	81.3
RPMI 5 mM glucose + 10% dialyzed FBS, 0.569 µM	71.5	75.9	70.8
RPMI 5 mM glucose + 10% dialyzed FBS, 1.71 µM	60.7	38.7	73.8
RPMI 5 mM glucose + 10% dialyzed FBS, 5.12 µM	52.3	15.1	54.9
RPMI 5 mM glucose + 10% dialyzed FBS, 15.4 µM	40	18.8	35.3
RPMI 5 mM glucose + 10% dialyzed FBS, 46.1 µM	24.9	17.5	7.57

AUC of viability dose-response curve
Conditions	[4]	[5]	[6]
HPLM + 10% dialyzed FBS	399	382	415
RPMI 5 mM glucose + 10% FBS	373	352	396
RPMI 5 mM glucose + 10% dialyzed FBS	343	322	358

O=[S+]([O-])(c1cccc2cnccc12)N1CCCNCC1
cell viability [%]
Conditions	HPLM + 10% dialyzed FBS	RPMI 5 mM glucose + 10% FBS	RPMI 5 mM glucose + 10% dialyzed FBS
[2], 0.000781 µM	98.7	–	–
[2], 0.00234 µM	124	–	–
[2], 0.00702 µM	136	–	–
[2], 0.0211 µM	136	–	–
[2], 0.0632 µM	132	–	–
[2], 0.19 µM	147	–	–
[2], 0.569 µM	139	–	–
[2], 1.71 µM	136	–	–
[2], 5.12 µM	130	–	–
[2], 15.4 µM	116	–	–
[2], 46.1 µM	51	–	–
[3], 0.000781 µM	103	123	110
[3], 0.00234 µM	104	115	108
[3], 0.00702 µM	121	130	123
[3], 0.0211 µM	120	121	135
[3], 0.0632 µM	121	151	145
[3], 0.19 µM	127	146	136
[3], 0.569 µM	138	133	138
[3], 1.71 µM	113	143	172
[3], 5.12 µM	117	139	145
[3], 15.4 µM	127	148	146
[3], 46.1 µM	115	54.9	93.3

AUC of viability dose-response curve
Conditions	[4]	[5]	[6]
HPLM + 10% dialyzed FBS	456	457	452
RPMI 5 mM glucose + 10% FBS	476	471	463
RPMI 5 mM glucose + 10% dialyzed FBS	467	465	447

OC[C@H]1O[C@@H](Oc2cc(O)cc(/C=C/c3ccc(O)cc3)c2)[C@H](O)[C@@H](O)[C@@H]1O
cell viability [%]
Conditions	[1]	[2]	[3]
HPLM + 10% dialyzed FBS, 0.000781 µM	98.2	85.6	71.9
HPLM + 10% dialyzed FBS, 0.00234 µM	110	116	89.5
HPLM + 10% dialyzed FBS, 0.00702 µM	108	107	97.3
HPLM + 10% dialyzed FBS, 0.0211 µM	113	128	105
HPLM + 10% dialyzed FBS, 0.0632 µM	113	115	101
HPLM + 10% dialyzed FBS, 0.19 µM	107	111	108
HPLM + 10% dialyzed FBS, 0.569 µM	108	99.4	108
HPLM + 10% dialyzed FBS, 1.71 µM	131	74.8	108
HPLM + 10% dialyzed FBS, 5.12 µM	110	63.1	95.4
HPLM + 10% dialyzed FBS, 15.4 µM	117	58.8	116
HPLM + 10% dialyzed FBS, 46.1 µM	117	45	115
RPMI 5 mM glucose + 10% FBS, 0.000781 µM	110	102	79.3
RPMI 5 mM glucose + 10% FBS, 0.00234 µM	114	99.2	102
RPMI 5 mM glucose + 10% FBS, 0.00702 µM	106	111	89.7
RPMI 5 mM glucose + 10% FBS, 0.0211 µM	113	121	104
RPMI 5 mM glucose + 10% FBS, 0.0632 µM	116	104	97.4
RPMI 5 mM glucose + 10% FBS, 0.19 µM	125	106	110
RPMI 5 mM glucose + 10% FBS, 0.569 µM	117	98.1	85.7
RPMI 5 mM glucose + 10% FBS, 1.71 µM	123	91.5	102
RPMI 5 mM glucose + 10% FBS, 5.12 µM	105	84.2	117
RPMI 5 mM glucose + 10% FBS, 15.4 µM	103	63.2	119
RPMI 5 mM glucose + 10% FBS, 46.1 µM	101	63.3	104
RPMI 5 mM glucose + 10% dialyzed FBS, 0.000781 µM	89.9	85.6	86.2
RPMI 5 mM glucose + 10% dialyzed FBS, 0.00234 µM	109	92.4	104
RPMI 5 mM glucose + 10% dialyzed FBS, 0.00702 µM	105	88.3	94
RPMI 5 mM glucose + 10% dialyzed FBS, 0.0211 µM	105	98.4	102
RPMI 5 mM glucose + 10% dialyzed FBS, 0.0632 µM	114	109	93.2
RPMI 5 mM glucose + 10% dialyzed FBS, 0.19 µM	107	108	104
RPMI 5 mM glucose + 10% dialyzed FBS, 0.569 µM	115	103	102
RPMI 5 mM glucose + 10% dialyzed FBS, 1.71 µM	112	84.7	119
RPMI 5 mM glucose + 10% dialyzed FBS, 5.12 µM	103	51.9	114
RPMI 5 mM glucose + 10% dialyzed FBS, 15.4 µM	102	52.7	117
RPMI 5 mM glucose + 10% dialyzed FBS, 46.1 µM	101	76.5	114

AUC of viability dose-response curve
Conditions	[4]	[5]	[6]
HPLM + 10% dialyzed FBS	449	397	451
RPMI 5 mM glucose + 10% FBS	465	426	433
RPMI 5 mM glucose + 10% dialyzed FBS	473	416	429
